Measured values taken from patent US11111233B2, “Amino pyrimidine compound for inhibiting protein tyrosine kinase activity” (Shenzhen TargetRx, Inc., priority 2016, dated 2021).
Where two headings read alike, the source gives them in different places.

Assays:
[1] = test system: Skin cancer cell line A431 (WT); assay: Cytotoxicity test (MTS cell viability), A431; type: cell-based; conditions: Homo sapiens, A-431; MTS, 72 hours; read-out: A431 (WT) IC50
[2] = molecular target: EGFR [L858R/T790M] (Homo sapiens (Human), UniProt P00533, L858R/T790M); assay: Kinase inhibition assay (HTRF), EGFR [L858R/T790M]; type: biochemical; conditions: HTRF Kinase TK kit, 10 min pre-incubation, 20 min reaction; read-out: EGFR(L858R/T790M) IC50
[3] = molecular target: WT EGFR (Homo sapiens (Human), UniProt P00533); assay: Kinase inhibition assay (HTRF), WT EGFR; type: biochemical; conditions: HTRF Kinase TK kit, 10 min pre-incubation, 20 min reaction
[4] = test system: lung cancer cells HCC827 (Del19); assay: Cytotoxicity test (MTS cell viability), HCC827; type: cell-based; conditions: Homo sapiens
[5] = HCC827, MTS, 72 hours, read-out: HCC827 (Del19) IC50
[6] = HCC827, 72 h, read-out: HCC827 (Del19) IC50(nM)

WT EGFR, sequence (P00533 25-1210): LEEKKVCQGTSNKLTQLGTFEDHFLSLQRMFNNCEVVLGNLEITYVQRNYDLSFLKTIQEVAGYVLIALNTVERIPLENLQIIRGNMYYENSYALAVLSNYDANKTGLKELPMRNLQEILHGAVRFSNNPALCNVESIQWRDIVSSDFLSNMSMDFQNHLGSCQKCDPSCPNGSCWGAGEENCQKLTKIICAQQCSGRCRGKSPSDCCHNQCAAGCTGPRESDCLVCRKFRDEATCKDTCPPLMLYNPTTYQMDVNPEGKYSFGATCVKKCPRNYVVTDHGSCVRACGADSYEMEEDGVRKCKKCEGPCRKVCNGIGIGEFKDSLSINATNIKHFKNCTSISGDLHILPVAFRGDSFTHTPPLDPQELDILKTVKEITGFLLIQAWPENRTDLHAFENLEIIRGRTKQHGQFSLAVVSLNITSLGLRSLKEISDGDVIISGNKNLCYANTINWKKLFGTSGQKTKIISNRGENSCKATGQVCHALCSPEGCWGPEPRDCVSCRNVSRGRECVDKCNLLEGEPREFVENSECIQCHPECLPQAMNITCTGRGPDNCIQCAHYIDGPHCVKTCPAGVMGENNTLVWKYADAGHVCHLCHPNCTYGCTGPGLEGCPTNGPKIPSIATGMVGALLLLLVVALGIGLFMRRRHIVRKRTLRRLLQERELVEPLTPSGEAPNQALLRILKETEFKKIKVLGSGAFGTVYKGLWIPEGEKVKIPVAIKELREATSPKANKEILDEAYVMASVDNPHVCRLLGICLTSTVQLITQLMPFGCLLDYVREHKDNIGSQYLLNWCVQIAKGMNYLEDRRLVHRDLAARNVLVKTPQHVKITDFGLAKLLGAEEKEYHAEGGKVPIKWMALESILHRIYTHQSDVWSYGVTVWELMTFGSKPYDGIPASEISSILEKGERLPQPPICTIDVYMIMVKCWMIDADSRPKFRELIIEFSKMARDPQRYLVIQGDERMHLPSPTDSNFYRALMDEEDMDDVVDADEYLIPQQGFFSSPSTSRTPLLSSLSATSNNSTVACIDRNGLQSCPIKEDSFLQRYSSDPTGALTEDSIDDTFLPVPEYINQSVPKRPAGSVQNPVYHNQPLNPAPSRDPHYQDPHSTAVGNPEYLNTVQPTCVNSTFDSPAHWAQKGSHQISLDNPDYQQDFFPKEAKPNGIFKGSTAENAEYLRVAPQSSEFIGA
EGFR [L858R/T790M], sequence (P00533 25-1210 T790M/L858R): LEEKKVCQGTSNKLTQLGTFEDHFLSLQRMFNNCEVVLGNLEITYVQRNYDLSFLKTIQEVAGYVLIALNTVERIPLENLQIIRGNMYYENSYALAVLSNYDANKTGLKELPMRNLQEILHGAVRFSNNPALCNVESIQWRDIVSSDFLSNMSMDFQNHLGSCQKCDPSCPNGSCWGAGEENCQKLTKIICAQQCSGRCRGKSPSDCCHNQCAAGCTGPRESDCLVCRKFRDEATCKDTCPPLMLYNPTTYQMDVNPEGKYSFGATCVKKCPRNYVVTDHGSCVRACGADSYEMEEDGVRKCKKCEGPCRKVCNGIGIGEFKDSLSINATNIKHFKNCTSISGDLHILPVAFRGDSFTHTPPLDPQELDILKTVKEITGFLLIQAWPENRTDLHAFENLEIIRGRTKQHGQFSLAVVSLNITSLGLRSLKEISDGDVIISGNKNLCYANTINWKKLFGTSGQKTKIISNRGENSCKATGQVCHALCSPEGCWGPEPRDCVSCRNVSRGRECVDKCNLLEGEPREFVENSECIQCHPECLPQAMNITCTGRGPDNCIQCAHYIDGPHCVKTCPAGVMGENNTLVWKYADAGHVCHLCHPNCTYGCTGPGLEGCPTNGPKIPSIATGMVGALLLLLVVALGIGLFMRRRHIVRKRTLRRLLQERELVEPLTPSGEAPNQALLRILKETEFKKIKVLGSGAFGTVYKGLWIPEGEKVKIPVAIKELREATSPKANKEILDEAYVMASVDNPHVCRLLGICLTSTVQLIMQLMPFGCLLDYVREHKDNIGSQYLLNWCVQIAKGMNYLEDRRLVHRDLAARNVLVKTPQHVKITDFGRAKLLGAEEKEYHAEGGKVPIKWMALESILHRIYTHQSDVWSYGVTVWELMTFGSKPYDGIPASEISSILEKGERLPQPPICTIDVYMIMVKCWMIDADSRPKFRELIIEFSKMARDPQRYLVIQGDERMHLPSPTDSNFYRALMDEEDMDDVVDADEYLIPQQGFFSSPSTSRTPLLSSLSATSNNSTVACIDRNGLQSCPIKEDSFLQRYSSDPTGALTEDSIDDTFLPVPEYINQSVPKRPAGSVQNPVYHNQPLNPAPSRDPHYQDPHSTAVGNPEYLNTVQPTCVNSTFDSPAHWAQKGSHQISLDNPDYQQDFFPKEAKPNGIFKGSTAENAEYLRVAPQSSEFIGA

| Structure (SMILES) | IC50 [2] [nM] | IC50 [3] [nM] | IC50 [1] [nM] | IC50 [4, 5] [nM] | IC50 [4, 6] [nM] |
| --- | --- | --- | --- | --- | --- |
| C=CC(=O)Nc1cc(Nc2nccc(-c3cc4c5c(c3)nc(OC)n5CCC4)n2)c(OC)cc1N(C)CCN(C)C [Example 45, N-(2-((2-(dimethylamino)ethyl)(methyl)amino)-4-methoxy-5-((4-(2-methoxy-5,6-dihydro-4H-imidazo[4,5,1-ij]quinolin-8-yl)pyrimidin-2-yl)amino)phenyl)acrylamide] | < 1 | 1 to 50 | 400 to 1000 | 10 to 100 |  |
| C=CC(=O)Nc1cc(Nc2nccc(-c3ccc4ncsc4c3)n2)c(OC)cc1N(C)CCN(C)C [Example 46, N-(5-((4-(benzo[d]thiazol-6-yl)pyrimidin-2-yl)amino)-2-((2-(dimethylamino)ethyl)(methyl)amino)-4-methoxyphenyl)acrylamide] | < 1 | 1 to 50 | 100 to 400 | 10 to 100 |  |
| C=CC(=O)Nc1cc(Nc2nccc(-c3cc(F)c4nc(C)n(C(C)C)c4c3)n2)c(OCC)cc1N(C)CCN(C)C [Example 48, N-(2-((2-(dimethylamino)ethyl)(methyl)amino)-4-ethoxy-5-((4-(4-fluoro-1-isopropyl-2-methyl-1H-benzo[d]imidazole-6-yl)pyrimidin-2-yl)amino)phenyl)acrylamide] | < 1 | 1 to 50 | 400 to 1000 |  | < 10 |
| C=CC(=O)Nc1cc(Nc2nccc(-c3cc(F)c4nc(C)n(C(C)C)c4c3)n2)c(OCC(F)(F)F)cc1N(C)CCN(C)C [Example 49, N-(2-((2-(dimethylamino)ethyl)(methyl)amino)-5-((4-(4-fluoro-1-isopropyl-2-methyl-1H-benzo[d]imidazole-6-yl)pyrimidin-2-yl)amino)-4-(2,2,2-trifluoroethoxy)phenyl)acrylamide] | < 1 | < 1 | 10 to 100 |  | < 10 |
| [2H]C([2H])([2H])c1nc2ccc(-c3ccnc(Nc4cc(NC(=O)C=C)c(N(C)CCN(C)C)cc4OC)n3)cc2n1C(C)C [Example 50, N-(2-((2-(dimethylamino)ethyl)(methyl)amino)-5-((4-(1-isopropyl-2-(methyl-d3)-1H-benzo[d]imidazole-6-yl)pyrimidin-2-yl)amino)-4-methoxyphenyl)acrylamide] | 1 to 50 | 1 to 50 | 100 to 400 | 10 to 100 |  |
| [2H]C([2H])([2H])C(n1c(C)nc2ccc(-c3ccnc(Nc4cc(NC(=O)C=C)c(N(C)CCN(C)C)cc4OC)n3)cc21)C([2H])([2H])[2H] [Example 52, N-(2-((2-(dimethylamino)ethyl)(methyl)amino)-4-methoxy-5-((4-(2-methyl-1-(propyl-2-yl-1,1,1,3,3,3-d6)-1H-benzo[d]imidazole-6-yl)pyrimidin-2-yl)amino)phenyl)acrylamide] | < 1 | 1 to 50 | 100 to 400 | < 10 |  |
| COc1cc(N2CCN(C)CC2)ccc1Nc1ncc(F)c(-c2cc(F)c3nc(C)n(C(C)C)c3c2)n1 [Example 55, 5-fluoro-4-(4-fluoro-1-isopropyl-2-methyl-1H-benzo[d]imidazole-6-yl)-N-(2-methoxy-4-(4-methylpiperazin-1-yl)phenyl)pyrimidin-2-amine] | 1 to 50 | 1 to 50 | 400 to 1000 | 400 to 1000 |  |
| C=CC(=O)Nc1cc(Nc2ncc(F)c(-c3cc(F)c4nc(C)c(C(=C)C)n4c3)n2)c(OC)cc1N(C)CCN(C)C [Example 56, N-(2-((2-(dimethylamino)ethyl)(methyl)amino)-5-((5-fluoro-4-(8-fluoro-2-methyl-3-(prop-1-en-2-yl)imidazo[1,2-a]pyridine-6-yl)pyrimidin-2-yl)amino)-4-methoxyphenyl)acrylamide] | 1 to 50 | 1 to 50 | > 1000 | 10 to 100 |  |
| C=C(C)c1c(C)nc2c(F)cc(-c3nc(Nc4ccc(N5CCN(C)CC5)cc4OC)ncc3F)cn12 [Example 57, 5-fluoro-4-(8-fluoro-2-methyl-3-(prop-1-en-2-yl)imidazo[1,2-a]pyridine-6-yl)-N-(2-methoxy-4-(4-methylpiperazin-1-yl)phenyl)pyrimidin-2-amine] | 1 to 50 | > 100 | > 1000 | > 1000 |  |
| COc1cc(N2CCN(C)CC2)ccc1Nc1ncc(F)c(-c2cc(F)c3nc(C)cn3c2)n1 [Example 58, 5-fluoro-4-(8-fluoro-2-methylimidazo[1,2-a]pyridine-6-yl)-N-(2-methoxy-4-(4-methylpiperazin-1-yl)phenyl)pyrimidin-2-amine] | > 100 | > 100 | > 1000 | > 1000 |  |
| COc1cc(N2CCN(C)CC2)ccc1Nc1ncc(F)c(-c2cc(F)c3nc(C)c(C(C)C)n3c2)n1 [Example 59, 5-fluoro-4-(8-fluoro-3-isopropyl-2-methylimidazo[1,2-a]pyridine-6-yl)-N-(2-methoxy-4-(4-methylpiperazin-1-yl)phenyl)pyrimidin-2-amine] | 50 to 100 | > 100 | > 1000 | > 1000 |  |

Now from value to compound, other results behind:

| IC50 [2] [nM] | IC50 [3] [nM] | Structure (SMILES) | IC50 [1] [nM] | IC50 [4, 5] [nM] | IC50 [4, 6] [nM] |
| --- | --- | --- | --- | --- | --- |
| 1 to 50 | 1 to 50 | [2H]C(C)(C)n1c(C)nc2ccc(-c3ccnc(Nc4cc(NC(=O)C=C)c(N(C)CCN(C)C)cc4OC)n3)cc21 [Example 51, N-(2-((2-(dimethylamino)ethyl)(methyl)amino)-4-methoxy-5-((4-(2-methyl-1-(propyl-2-yl-2-d)-1H-benzo[d]imidazole-6-yl)pyrimidin-2-yl)amino)phenyl)acrylamide] | 100 to 400 | 10 to 100 |  |
| < 1 | 1 to 50 | C=CC(=O)Nc1cc(Nc2nccc(-c3cc(F)c4nc(C)n(C(C)C)c4c3)n2)c(OC)cc1N(C)CCN(C)C [Example 53, N-(2-((2-(dimethylamino)ethyl)(methyl)amino)-5-((4-(4-fluoro-1-isopropyl-2-methyl-1H-benzo[d]imidazole-6-yl)pyrimidin-2-yl)amino)-4-methoxyphenyl)acrylamide] | 400 to 1000 | < 10 |  |
| < 1 | 1 to 50 | C=CC(=O)Nc1cc(Nc2nccc(-c3cc(F)c4nc(C(F)F)n(C(C)C)c4c3)n2)c(OC)cc1N(C)CCN(C)C [Example 60, N-(5-((4-(2-(difluoromethyl)-4-fluoro-1-isopropyl-1H-benzo[d]imidazol-6-yl)pyrimidin-2-yl)amino)-2-((2-(dimethylamino)ethyl)(methyl)amino)-4-methoxyphenyl)acrylamide] | 400 to 1000 | 10 to 100 |  |
| 1 to 50 | 1 to 50 | C=CC(=O)Nc1cc(Nc2nccc(-c3cc(F)c4nc(OC(C)C)n(C(C)C)c4c3)n2)c(OC)cc1N(C)CCN(C)C [Example 61, N-(2-((2-(dimethylamino)ethyl)(methyl)amino)-5-((4-(4-fluoro-2-isopropoxy-1-isopropyl-1H-benzo[d]imidazol-6-yl)pyrimidin-2-yl)amino)-4-methoxyphenyl)acrylamide] | 100 to 400 | 10 to 100 |  |
| < 1 | 1 to 50 | C=CC(=O)Nc1cc(Nc2nccc(-c3cc(F)c4nc(OCC)n(C(C)C)c4c3)n2)c(OC)cc1N(C)CCN(C)C [Example 62, N-(2-((2-(dimethylamino)ethyl)(methyl)amino)-5-((4-(2-ethoxy-4-fluoro-1-isopropyl-1H-benzo[d]imidazol-6-yl)pyrimidin-2-yl)amino)-4-methoxyphenyl)acrylamide] | > 1000 | 10 to 100 |  |
| < 1 | 1 to 50 | C=CC(=O)Nc1cc(Nc2nccc(-c3cc(F)c4nc(SC)n(C(C)C)c4c3)n2)c(OC)cc1N(C)CCN(C)C [Example 63, N-(2-((2-(dimethylamino)ethyl)(methyl)amino)-5-((4-(4-fluoro-1-isopropyl-2-(methylthio)-1H-benzo[d]imidazol-6-yl)pyrimidin-2-yl)amino)-4-methoxyphenyl)acrylamide] | > 1000 | 10 to 100 |  |
| < 1 | 1 to 50 | C=CC(=O)Nc1cc(Nc2nccc(-c3cc(F)c4nc(OCC(F)F)n(C(C)C)c4c3)n2)c(OC)cc1N(C)CCN(C)C [Example 64, N-(5-((4-(2-(2,2-difluoroethoxy)-4-fluoro-1-isopropyl-1H-benzo[d]imidazol-6-yl)pyrimidin-2-yl)amino)-2-((2-(dimethylamino)ethyl)(methyl)amino)-4-methoxyphenyl)acrylamide] | 100 to 400 | 10 to 100 |  |
| < 1 | 1 to 50 | C=CC(=O)Nc1cc(Nc2nccc(-c3cc(F)c4nc(COC)n(C(C)C)c4c3)n2)c(OC)cc1N(C)CCN(C)C [Example 65, N-(2-((2-(dimethylamino)ethyl)(methyl)amino)-5-((4-(4-fluoro-1-isopropyl-2-(methoxymethyl)-1H-benzo[d]imidazol-6-yl)pyrimidin-2-yl)amino)-4-methoxyphenyl)acrylamide] | 100 to 400 | < 10 |  |
| 1 to 50 | 1 to 50 | C=CC(=O)Nc1cc(Nc2nccc(-c3cc(F)c4nc5n(c4c3)CC(C)(C)O5)n2)c(OC)cc1N(C)CCN(C)C [Example 66, N-(2-((2-(dimethylamino)ethyl)(methyl)amino)-5-((4-(8-fluoro-2,2-dimethyl-2,3-dihydrobenzo[4,5]imidazo[2,1-b]oxazol-6-yl)pyrimidin-2-yl)amino)-4-methoxyphenyl)acrylamide] | 400 to 1000 | 10 to 100 |  |
